Source: patent US20160272992A1, “PROTECTION OF PLANTS AGAINST OXIDATIVE STRESS” (priority 2013, published 2016)

Experiments:
[1] = tested on: root meristem material of seedlings; conditions: 0.3 μg/mL bleomycin for 24 hours
Method: Seeds were plated on sterilized membranes and grown under a 16-hour light/8-hour dark regime at 21° C. After 2 days of germination and 5 days of growth, the membrane was transferred to MS medium containing 0.3 μg/mL bleomycin for 24 hours. Triplicate batches of root meristem material seedlings were harvested for total RNA preparation using the RNEASY® plant mini kit (Qiagen). Each of the different root tip RNA extracts were hybridized to 12 AFFYMETRIX® Arabidopsis Gene 1.0 ST Arrays according to manufacturer's instructions at the Nucleomics Core Facility (Leuven, Belgium; World Wide Web at nucleomics.be). Raw data were processed with the RMA algorithm (Irizarry et al., 2003) using the AFFYMETRIX® Power Tools and subsequently subjected to a Significance Analysis of Microarray (SAM) analysis with “MultiExperiment Viewer 4” (MeV4) of The Institute for Genome Research (TIGR) (Tusher et al., 2001). The imputation engine was set as 10-nearest neighbor imputer and the number of permutations was 100. Expression values were obtained by log 2-transforming the average value of the normalized signal intensities of the triplicate samples. Fold changes were obtained using the expression values of the treatment relative to the control samples. Genes with Q-values<0.1 and fold change>1.5 or <0.666 were retained for further analysis.

SIM/SMR promoters = assay: SIM/SMR promoter:GUS transcriptional reporter lines; format: in vivo, Arabidopsis thaliana
Source text: SIM/SMR promoter sequences were amplified from genomic DNA by PCR using the primers described in Table 5. The product fragments were created with the Pfu DNA Polymerase Kit (Promega, Catalog #M7745), and were cloned into a pDONR P4-Plr entry vector by BP recombination cloning and subsequently transferred into the pMK7S*NFml4GW,0 destination vector by LR cloning, resulting in a transcriptional fusion between the promoter of the SMR genes and the nlsGFP-GUS fusion gene (Karimi et al., 2007). For the overexpression constructs, the SMR coding regions were amplified using primers described in Table 5, and cloned into the pDONR221 vector by BP recombination cloning and subsequently transferred into the pK2GW7 destination vector (Kamimi et al., 2002) by LR cloning. All constructs were transferred into the Agrobacterium tumefaciens C58C1RifR strain harboring the pMP90 plasmid. The obtained Agrobacterium strains were used to generate stably transformed Arabidopsis lines with the floral dip transformation method (Clough and Bent, 1998). Transgenic plants were obtained on kanamycin-containing medium and later transferred to soil for optimal seed production.
Complete seedlings or tissue cuttings were stained in multiwell plates (Falcon 3043; Becton Dickinson). GUS assays were performed as described by Beeckman and Engler (1994). Samples mounted in lactic acid were observed and photographed with a stereomicroscope (Olympus BX51 microscope) or with a differential interference contrast (DIC) microscope (Leica).
To confirm involvement of SIM/SMR genes in the genotoxic stress response, transcriptional reporter lines containing the putative upstream promoter sequences were constructed for all. After selection of representative reporter lines, one-week-old seedlings were transferred to control medium, or medium supplemented with HU (resulting into stalled replication forks) or bleomycin (causing DSBs).

[2] = root meristem, treatment relative to control

bleomycin was tested, and the “Bleomycin fold change, AT1G07500 (Siamese-related 5)” value [1, 2] was 1.595, the “Bleomycin fold change, AT1G13330 (Hop2 homolog)” value [1, 2] was 1.580 and the “Bleomycin fold change, AT1G17460 (TRF-like 3)” value [1, 2] was 1.681. The “Bleomycin fold change, AT1G49030 (PLAC8 family protein)” value [1, 2] was 2.653, the “Bleomycin fold change, AT2G18600 (Ubiquitin-conjugating enzyme family protein)” value [1, 2] was 1.972 and the “Bleomycin fold change, AT2G45460 (SMAD/FHA domain-containing protein)” value [1, 2] was 1.575. The “Bleomycin fold change, AT2G46610 (RNA-binding RRM/RBD/RNP motifs family protein)” value [1, 2] was 1.546, the “Bleomycin fold change, AT3G07800 (Thymidine kinase)” value [1, 2] was 2.759 and the “Bleomycin fold change, AT3G25250 (AGC kinase family protein)” value [1, 2] was 1.517. For the same substance, the “Bleomycin fold change, AT3G27060 (Ferritin/ribonucleotide reductase-like family protein)” value [1, 2] was 1.970, the “Bleomycin fold change, AT3G27620 (alternative oxidase 1C)” value [1, 2] was 1.883 and the “Bleomycin fold change, AT3G27950 (GDSL-like Lipase/Acylhydrolase superfamily protein)” value [1, 2] was 4.012. The “Bleomycin fold change, AT4G02390 (Poly(ADP-ribose) polymerase)” value [1, 2] was 2.663, the “Bleomycin fold change, AT4G04750 (Major facilitator superfamily protein)” value [1, 2] was 1.689 and the “Bleomycin fold change, AT4G05370 (BCS1 AAA-type ATPase)” value [1, 2] was 1.807. The “Bleomycin fold change, AT4G15480 (UDP-Glycosyltransferase superfamily protein)” value [1, 2] was 2.394, the “Bleomycin fold change, AT4G21070 (Breast cancer susceptibility1)” value [1, 2] was 2.386 and the “Bleomycin fold change, AT4G22960 (Unknown function DUF544)” value [1, 2] was 2.282. The “Bleomycin fold change, AT5G03780 (TRF-like 10)” value [1, 2] was 1.600, the “Bleomycin fold change, AT5G14920 (Gibberellin-regulated family protein)” value [1, 2] was 2.122 and the “Bleomycin fold change, AT5G20850 (RAS associated with diabetes protein 51)” value [1, 2] was 1.765. For the same substance, the “Bleomycin fold change, AT5G24280 (Gamma-irradiation and mitomycin c induced 1)” value [1, 2] was 2.584, the “Bleomycin fold change, AT5G25810 (Integrase-type DNA-binding superfamily protein)” value [1, 2] was 1.573 and the “Bleomycin fold change, AT5G40840 (Rad21/Rec8-like family protein)” value [1, 2] was 1.692. The “Bleomycin fold change, AT5G48720 (X-ray induced transcript 1)” value [1, 2] was 2.228, the “Bleomycin fold change, AT5G49110 (unknown protein)” value [1, 2] was 1.562 and the “Bleomycin fold change, AT5G49480 (Ca2+-binding protein 1)” value [1, 2] was 1.580. For the same substance, the “Bleomycin fold change, AT5G55490 (Gamete expressed protein 1)” value [1, 2] was 2.407, the “Bleomycin fold change, AT5G60100 (pseudo-response regulator 3)” value [1, 2] was 1.801 and the “Bleomycin fold change, AT5G60250 (Zinc finger C3HC4-type RING finger family protein)” value [1, 2] was 2.352. For the same substance, the “Bleomycin fold change, AT5G64060 (NAC domain containing protein 103)” value [1, 2] was 2.153, the “Bleomycin fold change, AT5G66130 (RADIATION SENSITIVE 17)” value [1, 2] was 1.627 and the “Bleomycin fold change, AT5G66985 (unknown protein)” value [1, 2] was 1.612. For the same substance, the “induction of SMR7 (At3g27630) in the bleomycin experiment” value ([1]; Aragene array) was 5.68 fold, the “induction of SMR6 reporter in root tips” value (SIM/SMR promoters; one-week-old seedlings, 0.3 μg/mL bleomycin, GUS assay after 24 hours) was “weak cell-specific induction” and the “induction of SMR5 and SMR7 GUS reporters in the proliferating leaf” value (SIM/SMR promoters; treated for 24 hours) was “induced”.
